Results on one compound are retold here after patent US8772332B2, “Arylpropionyl-alpha-pyrone antibacterial agents” (priority 2010, dated 2014).

Values after ≈ are worked out from the molar mass of the structure shown.

In assay [1] the target is E. coli RNA polymerase σ70 holoenzyme (Escherichia coli, UniProt P0A8T7+P0A8V2). Briefly: Fluorescence-detected RNA polymerase assay, E. coli RNA polymerase. The class given is biochemical. The note with it: RiboGreen fluorescence, read-out: IC50 E. coli RNAP. On the procedure:
Fluorescence-detected RNA polymerase assays with E. coli RNA polymerase were performed by a modification of the procedure of Kuhlman et al., 2004 [Kuhlman, P., Duff, H. & Galant, A. (2004) A fluorescence-based assay for multisubunit DNA-dependent RNA polymerases. Anal. Biochem. 324, 183-190]. Reaction mixtures contained (20 μl): 0-100 nM test compound, 75 nM E. coli RNA polymerase σ^70 holoenzyme, 20 nM 384 bp DNA fragment containing the bacteriophage T4 N25 promoter, 100 μM ATP, 100 μM GTP, 100 μM UTP, 100 μM CTP, 50 mM Tris-HCl, pH 8.0, 100 mM KCl, 10 mM MgCl2, 1 mM DTT, 10 μg/ml bovine serum albumin, and 5.5% glycerol. Reaction components other than DNA and NTPs were pre-incubated for 10 min at 37° C. Reactions were carried out by addition of DNA and incubation for 5 min at 37° C., followed by addition of NTPs and incubation for 60 min at 37° C. DNA was removed by addition of 1 μl 5 mM CaCl2 and 2 U DNaseI (Ambion, Inc.), followed by incubation for 90 min at 37° C. RNA was quantified by addition of 100 μl RiboGreen RNA Quantitation Reagent (Invitrogen, Inc.; 1:500 dilution in Tris-HCl, pH 8.0, 1 mM EDTA), followed by incubation for 10 min at 25° C., followed by measurement of fluorescence intensity [excitation wavelength=485 nm and emission wavelength=535 nm; QuantaMaster QM1 spectrofluorometer (PTI, Inc.)]. […]

Assay [2] relates to Staphylococcus aureus ATCC 13709 MSSA. Briefly: MIC, spiral gradient endpoint assay. The class given is cell-based. The note with it: Mueller-Hinton II agar, 16 h at 37° C., read-out: MIC S. aureus 13709. An excerpt: (§1) Minimum inhibitory concentrations (MICs) for Staphylococcus aureus ATCC 12600, Staphylococcus aureus ATCC 13709 MSSA, Staphylococcus aureus BAA-1707 MRSA (MW2), Staphylococcus aureus BAA-1717 MRSA (USA300), Enterococcus faecalis ATCC 19433, Enterococcus faecium ATCC19434, and Escherichia coli D21f2tolC were quantified using spiral gradient endpoint assays, essentially as described [Wallace, A. and Corkill, J. (1989) Application of the spiral plating method to study antimicrobial action. J. Microbiol. Meths. 10, 303-310; Paton, J., Holt, A., and Bywater, M. (1990) Measurement of MICs of antibacterial agents by spiral gradient endpoint compared with conventional dilution methods. Int. J. Exp. Gin. Chemother. 3, 31-38; Schalkowsky S. (1994) Measures of susceptibility from a spiral gradient of drug concentrations. Adv. Exp. Med. Biol. 349, 107-120]. Assays employed exponential-gradient plates containing 150 mm×4 mm Mueller-Hinton II cation-adjusted agar and 0.4-100 μg/ml of test compound. Plates were prepared using an Autoplate 4000 spiral plater (Spiral Biotech, Inc.). Saturated overnight cultures were swabbed radially onto plates, and plates were incubated for 16 h at 37° C. For each culture, the streak length was measured using a clear plastic template (Spiral Biotech, Inc.), the test-compound concentration at the streak endpoint was calculated using the program SGE (Spiral Biotech, Inc.), and the MIC was defined as the calculated test-compound concentration at the streak endpoint.

In assay [3] the test system is Enterococcus faecium ATCC19434. Briefly: MIC, spiral gradient endpoint assay. Type of assay: cell-based. The following applies: Mueller-Hinton II agar, 16 h at 37° C., read-out: MIC E. faecium 19434.
Text: as §1

The subject of assay [4] is Escherichia coli D21f2tolC. Briefly: MIC, spiral gradient endpoint assay. The class given is cell-based. The note with it: 16 h, read-out: MIC E. coli D21f2tolC.
Text: as §1

Assay [5] has as its system Staphylococcus aureus BAA-1707 MRSA (MW2). Briefly: MIC, spiral gradient endpoint assay. Type of assay: cell-based. The following applies: Mueller-Hinton II agar, 16 h at 37° C., read-out: MIC S. aureus MRSA 1707.
Text: as §1

Assay [6] relates to Enterococcus faecalis ATCC 19433. Briefly: MIC, spiral gradient endpoint assay. The class given is cell-based. The note with it: ATCC19433, Mueller-Hinton II agar, 16 h at 37° C., read-out: MIC E. faecalis 19433.
Text: as §1

For assay [7], the system named is Staphylococcus aureus ATCC 12600. Briefly: MIC, spiral gradient endpoint assay. The class given is cell-based. The note with it: ATCC12600, Mueller-Hinton II agar, 16 h at 37° C., read-out: MIC S. aureus 12600.
Text: as §1

Assay [8] relates to Staphylococcus aureus BAA-1717 MRSA (USA300). Briefly: MIC, spiral gradient endpoint assay. The class given is cell-based. The note with it: Mueller-Hinton II agar, 16 h at 37° C., read-out: MIC S. aureus MRSA 1717.
Text: as §1

The subject of assay [9] is Mycobacterium tuberculosis H37Rv. Briefly: MIC, microplate Alamar Blue assay. Type of assay: cell-based. From the text: MICs for Mycobacterium tuberculosis were quantified using microplate Alamar Blue assays as described [Collins, L. & Franzblau, S. (1997) Microplate Alamar Blue assay versus BACTEC 460 system for high-throughput screening of compounds against Mycobacterium tuberculosis and Mycobacterium avium. Antimicrob. Agents Chemother. 41, 1004-1009].
For orientation: The colour change of resazurin is a common sign of viable cells or microbes.

Sequence of E. coli RNA polymerase σ70 holoenzyme (P0A8V2 whole entry, the tested form may be a part): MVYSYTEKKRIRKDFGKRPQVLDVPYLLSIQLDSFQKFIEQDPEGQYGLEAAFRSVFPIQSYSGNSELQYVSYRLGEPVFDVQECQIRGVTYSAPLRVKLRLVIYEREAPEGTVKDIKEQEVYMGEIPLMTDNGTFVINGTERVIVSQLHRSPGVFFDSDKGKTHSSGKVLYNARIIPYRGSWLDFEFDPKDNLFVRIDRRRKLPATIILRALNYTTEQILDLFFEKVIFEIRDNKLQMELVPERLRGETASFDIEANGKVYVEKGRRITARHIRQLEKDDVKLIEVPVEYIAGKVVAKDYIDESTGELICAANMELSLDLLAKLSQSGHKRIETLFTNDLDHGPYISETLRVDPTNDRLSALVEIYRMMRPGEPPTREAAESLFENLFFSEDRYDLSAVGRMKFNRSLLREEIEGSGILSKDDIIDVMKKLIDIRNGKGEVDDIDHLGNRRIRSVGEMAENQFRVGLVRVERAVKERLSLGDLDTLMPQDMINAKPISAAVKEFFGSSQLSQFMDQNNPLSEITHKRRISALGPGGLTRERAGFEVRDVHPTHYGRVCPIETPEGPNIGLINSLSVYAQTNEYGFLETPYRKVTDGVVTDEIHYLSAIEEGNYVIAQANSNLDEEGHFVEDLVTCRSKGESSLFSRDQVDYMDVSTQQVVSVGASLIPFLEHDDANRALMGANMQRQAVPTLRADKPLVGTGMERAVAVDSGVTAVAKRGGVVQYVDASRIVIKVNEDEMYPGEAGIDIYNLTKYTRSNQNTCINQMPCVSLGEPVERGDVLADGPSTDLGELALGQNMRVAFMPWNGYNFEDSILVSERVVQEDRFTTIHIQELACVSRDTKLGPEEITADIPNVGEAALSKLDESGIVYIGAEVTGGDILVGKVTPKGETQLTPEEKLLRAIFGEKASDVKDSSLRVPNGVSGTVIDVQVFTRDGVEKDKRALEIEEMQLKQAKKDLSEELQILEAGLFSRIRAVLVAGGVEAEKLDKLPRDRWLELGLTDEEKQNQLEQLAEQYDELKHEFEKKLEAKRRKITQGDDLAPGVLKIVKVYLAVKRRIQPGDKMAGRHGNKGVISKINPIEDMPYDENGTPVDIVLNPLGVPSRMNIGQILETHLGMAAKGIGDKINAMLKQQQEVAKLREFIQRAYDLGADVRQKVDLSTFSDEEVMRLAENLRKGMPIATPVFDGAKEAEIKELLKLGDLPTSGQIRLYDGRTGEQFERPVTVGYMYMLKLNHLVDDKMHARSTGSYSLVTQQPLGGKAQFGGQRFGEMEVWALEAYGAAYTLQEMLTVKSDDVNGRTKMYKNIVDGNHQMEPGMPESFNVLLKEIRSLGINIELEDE
Sequence of E. coli RNA polymerase σ70 holoenzyme (P0A8T7 whole entry, the tested form may be a part): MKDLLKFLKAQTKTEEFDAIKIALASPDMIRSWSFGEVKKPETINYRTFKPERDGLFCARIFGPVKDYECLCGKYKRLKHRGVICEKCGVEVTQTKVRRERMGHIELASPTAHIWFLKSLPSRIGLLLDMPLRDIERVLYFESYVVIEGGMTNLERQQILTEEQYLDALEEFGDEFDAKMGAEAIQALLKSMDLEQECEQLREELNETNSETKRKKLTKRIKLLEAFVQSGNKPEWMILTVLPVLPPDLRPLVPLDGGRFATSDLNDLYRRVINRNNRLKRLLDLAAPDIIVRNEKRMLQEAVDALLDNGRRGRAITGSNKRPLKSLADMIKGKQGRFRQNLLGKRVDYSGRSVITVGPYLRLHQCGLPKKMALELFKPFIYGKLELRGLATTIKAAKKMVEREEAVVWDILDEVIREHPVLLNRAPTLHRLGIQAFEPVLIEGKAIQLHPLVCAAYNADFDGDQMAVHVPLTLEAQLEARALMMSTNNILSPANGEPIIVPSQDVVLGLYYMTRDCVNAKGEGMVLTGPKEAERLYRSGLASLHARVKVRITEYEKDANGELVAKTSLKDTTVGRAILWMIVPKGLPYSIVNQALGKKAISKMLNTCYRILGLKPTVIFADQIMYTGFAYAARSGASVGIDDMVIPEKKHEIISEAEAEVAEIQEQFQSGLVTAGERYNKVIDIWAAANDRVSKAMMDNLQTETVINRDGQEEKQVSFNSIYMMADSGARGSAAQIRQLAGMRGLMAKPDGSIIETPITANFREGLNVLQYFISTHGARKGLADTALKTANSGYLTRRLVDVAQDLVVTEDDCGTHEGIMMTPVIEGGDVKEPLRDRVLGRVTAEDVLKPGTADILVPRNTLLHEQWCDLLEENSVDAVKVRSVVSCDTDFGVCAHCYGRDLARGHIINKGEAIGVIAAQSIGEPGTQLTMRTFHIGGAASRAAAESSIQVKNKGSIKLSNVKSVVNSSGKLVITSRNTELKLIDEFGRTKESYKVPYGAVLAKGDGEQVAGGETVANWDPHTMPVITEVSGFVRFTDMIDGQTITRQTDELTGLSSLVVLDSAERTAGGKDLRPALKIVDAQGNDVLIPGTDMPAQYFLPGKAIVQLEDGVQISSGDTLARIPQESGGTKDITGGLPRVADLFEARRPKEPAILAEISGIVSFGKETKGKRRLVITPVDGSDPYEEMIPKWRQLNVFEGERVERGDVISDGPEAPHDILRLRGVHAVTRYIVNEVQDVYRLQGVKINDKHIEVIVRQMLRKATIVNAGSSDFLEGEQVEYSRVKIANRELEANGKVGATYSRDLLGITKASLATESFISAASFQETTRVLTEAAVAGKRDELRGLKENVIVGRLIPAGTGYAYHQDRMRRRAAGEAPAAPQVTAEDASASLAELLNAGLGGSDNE
Sequence of E. coli RNA polymerase σ70 holoenzyme (P0A7Z4 whole entry partner, the tested form may be a part): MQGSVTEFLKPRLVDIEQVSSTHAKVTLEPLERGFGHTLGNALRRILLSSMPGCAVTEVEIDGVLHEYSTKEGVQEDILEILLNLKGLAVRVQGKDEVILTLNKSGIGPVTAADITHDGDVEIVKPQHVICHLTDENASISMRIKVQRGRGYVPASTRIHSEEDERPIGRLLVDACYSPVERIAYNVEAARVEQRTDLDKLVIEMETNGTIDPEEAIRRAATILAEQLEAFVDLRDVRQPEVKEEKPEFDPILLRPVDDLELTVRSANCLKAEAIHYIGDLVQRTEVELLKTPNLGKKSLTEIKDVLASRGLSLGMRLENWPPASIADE
Sequence of E. coli RNA polymerase σ70 holoenzyme (P0A800 whole entry partner, the tested form may be a part): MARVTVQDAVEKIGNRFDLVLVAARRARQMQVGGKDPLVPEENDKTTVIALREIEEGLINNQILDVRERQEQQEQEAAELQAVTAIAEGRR
Sequence of E. coli RNA polymerase σ70 holoenzyme (P00579 whole entry partner, the tested form may be a part): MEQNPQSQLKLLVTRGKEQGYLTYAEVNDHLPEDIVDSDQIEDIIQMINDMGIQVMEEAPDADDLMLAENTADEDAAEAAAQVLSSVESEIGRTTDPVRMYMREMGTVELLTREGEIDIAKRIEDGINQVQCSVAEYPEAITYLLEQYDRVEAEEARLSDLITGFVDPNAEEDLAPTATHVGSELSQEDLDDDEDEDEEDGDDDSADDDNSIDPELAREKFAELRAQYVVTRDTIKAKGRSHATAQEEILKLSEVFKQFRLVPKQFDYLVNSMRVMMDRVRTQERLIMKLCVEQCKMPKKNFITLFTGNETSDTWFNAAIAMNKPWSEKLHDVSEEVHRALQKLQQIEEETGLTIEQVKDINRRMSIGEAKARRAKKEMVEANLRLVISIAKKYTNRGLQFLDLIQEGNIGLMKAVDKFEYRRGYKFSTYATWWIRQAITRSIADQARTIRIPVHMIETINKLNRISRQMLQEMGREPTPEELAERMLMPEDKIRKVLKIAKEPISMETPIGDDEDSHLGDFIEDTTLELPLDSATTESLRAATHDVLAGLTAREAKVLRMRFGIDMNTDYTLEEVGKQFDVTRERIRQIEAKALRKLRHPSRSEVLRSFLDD

The term IC50 denotes the concentration that gives 50% inhibition. The MIC is the lowest concentration found to suppress growth. `CCCCCC1=CC(=O)C(C(=O)CCc2ccccc2)C(=O)O1` (stereo not drawn) [Compound 1, 4-hydroxy-6-pentyl-3-(3-phenylpropanoyl)-2-pyrone]: in [1], the IC50 was found to be 37 µM. For the same compound, the MIC in assay [2] stood at 9 mg/L (≈ 28.6 µM); in assay [3], 7 mg/L (≈ 22.3 µM); in [4] it was 3 mg/L (≈ 9.54 µM); in assay [5], 5 mg/L (≈ 15.9 µM); in assay [6], 3 mg/L (≈ 9.54 µM); in [7] it was 6 mg/L (≈ 19.1 µM). The MIC in assay [8] stood at 8 mg/L (≈ 25.4 µM); in assay [9] it was 9 mg/L (≈ 28.6 µM).
